Patent US20170137481A1, “Use of Cell-Permeable Peptide Inhibitors of the JNK Signal Transduction Pathway for the Treatment of Various Diseases” (Xigen Inflammation Ltd., priority 2014, published 2017)

Tests used:
[1] = system: rat model of diabetic nephropathy; test: STZ rat model of diabetic nephropathy, chronic administration; format: in vivo; conditions: XG-102 1, 2, 4 mg/kg iv weekly; Losartan 25 mg/kg po daily
Text: Losartan has been used as a positive control. Seventy-four male Sprague-Dawley rats (200-250 g; including 4 spare animals) from Charles River (Margate, Kent) were used. […] The diet has been purchased from Research Diets, New Jersey, USA. […] Animals have been housed in pairs throughout the study. […] During the third week of habituation, a blood sample has been taken from the lateral tail vein in the freely fed state using a hand-held glucose meter (One Touch Ultra 2). Blood sampling began at approximately 09:00. […] About 40 animals have been assigned to Cohort A and the remaining 30 to Cohort B, balanced as far as possible for body weight, plasma glucose and food and water intake. […] In all groups, food and water intake have been determined twice weekly (on the day of iv dosing and on water refill days. Blood glucose has been determined monthly. Samples were collected as detailed previously by glucometer (One Touch Ultra2). Blood samples have been taken in the freely fed state (beginning at approx. 09:00). Animals have been dosed immediately afterwards by the respective route to a timed schedule. Subsequent to dosing, each animal has been placed in a metabolism cage with free access to food and water for a 24 h period. To reduce evaporation, the glass urine collectors have been placed in a polystyrene container (Sca-online, UK) which was filled with ice. […]

[2] = system: primary embryonic cultures and differentiated PC12 cells; conditions: after trophic withdrawal; cited from earlier work
[3] = system: gerbil model of transient global ischemia; conditions: cited from earlier work

## CCCCc1nc(Cl)c(CO)n1Cc1ccc(-c2ccccc2-c2nn[nH]n2)cc1 [Losartan]
[1]
  body weight versus vehicle-treated STZ rats: significantly lower

## CCSCc1ccc2c(c1)c1c3c(c4c5cc(CSCC)ccc5n5c4c1n2[C@H]1C[C@](O)(C(=O)OC)[C@]5(C)O1)CNC3=O [CEP-1347]
[2]
  neuronal survival: promotes neuronal survival

## N#CC(c1ccnc(NCCc2cccnc2)n1)c1nc2ccccc2s1 (stereo not drawn) [AS601245]
[3]
  delayed loss of hippocampal CA1 neurons: significant protection against the delayed loss of hippocampal CA1 neurons
